Experimental data taken from US20250064846A1, “TREATMENT AND PREVENTION OF TRIGEMINAL NEURALGIA” (THE JOHNS HOPKINS UNIVERSITY, priority 2022, published 2025).

Columns and labels:
NRF2 = assay: NRF2/ARE Luciferase Reporter Assay (HEK293 stable cell line); format: cell-based, human; details: 6 hrs exposure to varying concentrations, relative to vehicle, normalized to total protein
Protocol: NRF2/ARE Luciferase Reporter Assay NRF2 activity was monitored with a reporter cell line in which changes in NRF2 activity are coupled to the expression of firefly luciferase (NRF2/ARE Luciferase Reporter HEK293 Stable Cell Line). Luciferase activity was quantified with the Luciferase Assay System as per the manufacturer's instructions. Briefly, cells were plated at 125,000 cells/well in a 24-well plate. The following day, cells were treated with either vehicle or varying doses of sulforaphane, exemestane, or JQ-1 for 6 hours. Cells were then lysed in passive lysis buffer (Promega E1941) supplemented with protease inhibitors (Sigma). Lysates were then cleared at 16,000 g for 15 minutes at 4° C. 15 μL of each lysate was mixed with 5 μL of luciferase assay substrate (Promega). Total light was measured using a luminometer with a 10 second integration time with a delay of 2 seconds. Luciferase measurements were normalized to total protein and reported as normalized to the vehicle condition.

[1] = tested on: maxillary nerves of mice after nerve ligation; assay: Oxidative stress assay in maxillary nerves (4-HNE, protein carbonylation, MDA); format: in vivo, mouse; details: for levels of 4-HNE in maxillary nerves after nerve ligation / protein carbonylation in maxillary nerves after nerve ligation: western blot normalized to β-actin, daily i.p. pre-treatment, vs vehicle
Protocol: Western Blotting Western blotting was performed as previously described (See Vasavda, C. et al. Cell Chem Biol 26, 1450-1460.e7 (2019)). Briefly, tissues were homogenized at 4° C. in lysis buffer (pH 7.4 solution of 50 mM Tris-HCl, 150 mM NaCl, 0.1% SDS, 0.5% sodium deoxycholate, and 1% Triton X-100) supplemented with protease inhibitors (Sigma). When dissecting maxillary nerves for immunoblot analysis, nerves were as dissected both as proximally towards the semilunar ganglion and as distal to the skin as possible. Nerves were harvested 11 days after surgery, immediately after the final behavioral test. Lysates were then pulse sonicated and centrifuged at 16,000 g for 10 min at 4° C. Fifteen micrograms of cleared lysate were run on a 4-12% polyacrylamide Bis-Tris gradient gel in running buffer (pH 7.3 solution of 50 mM MES, 50 mM Tris Base, 0.1% SDS, 1 mM EDTA) and then transferred to a PVDF membrane. Membranes were blocked with 5% milk in TBS-T (pH 7.6 solution of 16 mM Tris-HCl, 140 mM NaCl, 0.1% Tween-20) for 1 hr at 25° C. and then incubated with primary antibodies in 3% bovine serum albumin (BSA) (w/v) in TBS-T overnight at 4° C. The following day, membranes were washed with TBS-T, and then incubated with secondary antibodies in 3% BSA (w/v) in TBS-T for 1 hr at 25° C. The following primary antibodies were used: rabbit anti-4-HNE (Abeam ab46545; 1:1.000), rabbit anti-TRPA1 (Novus Biologicals NB110-40763; 1:1,000), rabbit anti-DNP (Millipore Sigma 90451; 1:150), and mouse anti-β-actin (Santa Cruz Biotech sc-47778 HRP; 1:10,000). The following secondary antibodies were used: donkey anti-rabbit IgG (GE Healthcare NA934; 1:10,000) and goat anti-rabbit (Millipore Sigma 90452; 1:300).
Oxidative Stress Assay % 4-HNE was quantified by Western blot as described above with a rabbit anti-4-HNE (Abeam ab46545; 1:1,000) primary antibody. Protein carbonylation was assessed with the OxyBlot Protein Oxidation Detection Kit as per the manufacturer's instructions. Protein carbonylation was quantified by western blot as described above with a rabbit anti-DNP (Millipore Sigma 90451; 1:150) primary antibody. MDA was quantified with the OxiSelect TBARS Assay Kit as per the manufacturer's instructions. Concentrations below the limit of detection (LOD) were censored and substituted with a constant value of the […].

Row | Compound | luciferase expression in the NRF2 reporter line (NRF2) | levels of 4-HNE in maxillary nerves after nerve ligation [1] | protein carbonylation in maxillary nerves after nerve ligation [1] | malondialdehyde in maxillary nerves after nerve ligation ([1]; sulforaphane 10 mg/kg, i.p., normalized to protein)
1 | Cc1sc2c(c1C)C(c1ccc(Cl)cc1)=N[C@@H](CC(=O)OC(C)(C)C)c1nnc(C)n1-2 [JQ-1, (S)-tert-butyl 2-(4-(4-chlorophenyl)-2,3,9-trimethyl-6H-thieno[3,2-f][1,2,4]triazolo[4,3-a][1,4]diazepin-6-yl)acetate] | did not stimulate luciferase expression | reduced | reduced | 
2 | C=C1C[C@@H]2[C@H](CC[C@]3(C)C(=O)CC[C@@H]23)[C@@]2(C)C=CC(=O)C=C12 [exemestane, 6-methylenandrosta-1,4-diene-3,17-dione] | similarly increased luciferase expression | reduced | reduced | 
3 | C[S+]([O-])CCCCN=C=S (stereo not shown) [sulforaphane, 1-isothiocyanato-4-(methanesulfinyl)butane] | dose-dependently increased luciferase expression | reduced | reduced | reduced
